Experimental data reported in PubChem BioAssay AID248 (DTP/NCI, 2004).
Inconclusive results and toxic doses are left out. Cut-off read from the data, not from the text of the source: active = T/C of 150% or more; inactive = T/C below 125%.

Tested on: L1210 leukemia ip in BDF1 mice, survival T/C
Test: NCI In Vivo Anticancer Drug Screen. Data for tumor model L1210 Leukemia (intraperitoneal) in B6D2F1 (BDF1) mice
Settings: endpoint: mean survival time, vehicle: saline, higher = longer survival
Procedure, shortened: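 Each compound was tested against a transplantable tumor grown in mice. The endpoint was survival, with treated animals benchmarked against vehicle controls as a simple ratio.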

Measured: T/C

C(=N/N=C(/C(=N/N=C/c1ccccc1)c1ccccc1)c1ccccc1)\c1ccccc1
inactive: dose: 100.0 mg/kg/injection, schedule: Q01DX001 (ip) 94 % of control | dose: 200.0 mg/kg/injection, schedule: Q01DX001 (ip) 95 % of control | dose: 400.0 mg/kg/injection, schedule: Q01DX001 (ip) 97 % of control

C[N+]1(C)C2CSCC1CC(O)C2 (stereo not given)
inactive: dose: 12.5 mg/kg/injection, schedule: Q01DX009 (ip) 105 % of control | dose: 12.5 mg/kg/injection, schedule: Q04DX003 (ip) 104 % of control | dose: 25.0 mg/kg/injection, schedule: Q01DX009 (ip) 117 % of control | dose: 25.0 mg/kg/injection, schedule: Q04DX003 (ip) 98 % of control | dose: 50.0 mg/kg/injection, schedule: Q01DX009 (ip) 106 % of control | dose: 50.0 mg/kg/injection, schedule: Q04DX003 (ip) 102 % of control | dose: 100.0 mg/kg/injection, schedule: Q04DX003 (ip) 101 % of control
